# Entries after “also recorded” stand apart in the source; their conditions may differ.
# Key:
# [1] = 4 h main pharmacokinetic experiment in wild-type, Abcb1a/1b-/-, Abcg2-/- and Abcb1a/1b;Abcg2-/- mice; format: in vivo; conditions: 10 mg/kg oral, 4 h main experiment; for Cmax / Tmax / concentration at 4 h / AUC(0-t): mouse; for Cmax / Tmax / AUC(0-t): plasma; for concentration at 4 h / AUC(0-t): male, po, 10 mg/kg; for AUC(0-t): read-out: AUC0–4h
# Procedure: (§1) Mice were housed and handled according to institutional guidelines complying with Dutch and EU legislation. All experimental animal protocols were evaluated and approved by the institutional animal care and use committee. Wild-type, Abcb1a/1b^-/-, Abcg2^-/-, Abcb1a/1b; Abcg2^-/-, Slco1a/1b^-/- male mice, and Cyp3a^-/- and Cyp3aXAV female mice, all of a >99% FVB genetic background, were used between 9 and 16 weeks of age. […] All experimental animal protocols (WP9450, 9669, 9760), including power calculations, designed under the nationally approved DEC/CCD project AVD301002016595, were evaluated and approved by the institutional animal care and use committee of The Netherlands Cancer Institute. […]
# (§2) For the 4 h transporter experiments, tail-vein blood samples were collected at 0.125, 0.25, 0.5, 1, and 2 h time points after oral administration, respectively. For the CYP3A 8 h experiments, tail-vein blood sampling was performed at 0.25, 0.5, 1, 2, and 4 h, respectively. While for elacridar inhibition experiments, tail-vein blood samples were collected at 0.125, 0.25, 0.5, and 1 h time points after oral administration, respectively. Blood sample collection was performed using microvettes containing dipotassium EDTA. At the last time point in each experiment (2, 4 or 8 h), mice were anesthetized with 5% isoflurane and blood was collected by cardiac puncture. Blood samples were collected in Eppendorf tubes containing heparin as an anticoagulant. The mice were then sacrificed by cervical dislocation and brain, liver, kidney, lung, small intestine and testis were rapidly removed. Plasma was isolated from the blood by centrifugation at 9000× g for 6 min at 4 °C, and the plasma fraction was collected and stored at −30 °C until analysis. Organs were homogenized with 4% (w/v) bovine serum albumin and stored at −30 °C until analysis.
# (§3) Pharmacokinetic parameters were calculated by noncompartmental methods using the PK solver software. The area under the plasma concentration–time curve (AUC) was calculated using the trapezoidal rule, without extrapolating to infinity. The peak plasma concentration (Cmax) and the time of maximum plasma concentration (Tmax) were estimated from the original (individual mouse) data. One-way analysis of variance (ANOVA) was used when multiple groups were compared and the Tukey post hoc correction was used to accommodate multiple testing. The two-sided unpaired Student’s t-test was used when treatments or differences between two specific groups were compared using the software GraphPad Prism 8 (GraphPad Software Inc., La Jolla, CA, USA). All the data were log-transformed before statistical tests were applied. Differences were considered statistically significant when p < 0.05. All data are presented as geometric mean ± SD.
# [2] = 4 h pharmacokinetic pilot study in wild-type, Abcb1a/1b;Abcg2-/- and Slco1a/1b-/- mice; format: in vivo; conditions: for abnormal external behavior (acute toxicity): 10 mg/kg oral
# Procedure: as §1, §2, §3
# [3] = FVB (Abcb1a/1b-/-), male Abcb1a/1b-/- mice
# [4] = FVB (Abcb1a/1b;Abcg2-/-), male Abcb1a/1b;Abcg2-/- mice
# [5] = FVB (Abcg2-/-), male Abcg2-/- mice
# [6] = FVB (wild-type), male wild-type mice
# [7] = male, FVB (Abcb1a/1b;Abcg2-/-), mouse, in vivo, po, 10 mg/kg, 4 h
# [8] = male, FVB (Slco1a/1b-/-), mouse, in vivo, po, 10 mg/kg, 4 h
# [9] = male, FVB background, Abcb1a/1b;Abcg2-/-, mouse, in vivo, po, 10 mg/kg
# [10] = male, FVB background, Slco1a/1b-/-, mouse, in vivo, po, 10 mg/kg
# [11] = male, FVB background, wild-type, mouse, in vivo, po, 10 mg/kg
smiles,measurement,setting,value
COc1ccc(CN2C3CC2CN(c2ccc(-c4cc(OCC(C)(C)O)cn5ncc(C#N)c45)cn2)C3)cn1 [selpercatinib],Cmax,[1]; [3],10300 ng/mL
same,Tmax,[1]; [3],1.8 ± 1.3 h
same,Cmax,[1]; [4],11000 ng/mL
same,Tmax,[1]; [4],1.5 ± 1.3 h
same,Cmax,[1]; [5],11400 ng/mL
same,Tmax,[1]; [5],1.4 ± 0.74 h
same,Cmax,[1]; [6],6910 ± 761 ng/mL
same,Tmax,[1]; [6],1.6 ± 1.4 h
same,SIC percentage of dose,[1]; male Abcb1a/1b-/- mice,1.1 ± 0.3%
same,SIC percentage of dose,[1]; male Abcb1a/1b;Abcg2-/- mice,0.69 ± 0.52 %
same,SIC percentage of dose,[1]; male Abcg2-/- mice,1.6 ± 0.7 %
same,SIC percentage of dose,[1]; male wild-type mice,2.3 ± 0.9%
same,concentration at 4 h,"[1]; FVB (Abcb1a/1b-/-), brain, male Abcb1a/1b-/- mice, read-out: Cbrain",2000 ± 233 ng/g
same,concentration at 4 h,"[1]; FVB (Abcb1a/1b;Abcg2-/-), brain, male Abcb1a/1b;Abcg2-/- mice, read-out: Cbrain",4260 ± 853 ng/g
same,AUC(0-t),[1]; [4],39000 ng·h/mL
same,concentration at 4 h,"[1]; FVB (Abcg2-/-), brain, male Abcg2-/- mice, read-out: Cbrain",418 ± 102 ng/g
same,concentration at 4 h,"[1]; FVB (wild-type), brain, male wild-type mice, read-out: Cbrain",420 ± 66 ng/g
same,concentration at 4 h,"[1]; FVB, liver, male Abcb1a/1b-/- mice, read-out: CLiver",34000 ng/g
same,concentration at 4 h,"[1]; FVB, liver, male Abcb1a/1b;Abcg2-/- mice, read-out: CLiver",23200 ng/g
same,concentration at 4 h,"[1]; FVB, liver, male Abcg2-/- mice, read-out: CLiver",19300 ng/g
same,concentration at 4 h,"[1]; FVB, liver, male wild-type mice, read-out: CLiver",25700 ng/g
same,AUC(0-t),"[1]; FVB, male Abcb1a/1b-/- mice",37000 ng·h/mL
same,AUC(0-t),"[1]; FVB, male Abcg2-/- mice",39100 ng·h/mL
same,AUC(0-t),"[1]; FVB, male wild-type mice",23700 ng·h/mL
same,concentration at 4 h,"[1]; FVB, small intestine contents, male Abcb1a/1b-/- mice, read-out: CSIC (small intestine contents concentration)",69400 ng/g
same,concentration at 4 h,"[1]; FVB, small intestine contents, male Abcb1a/1b;Abcg2-/- mice, read-out: CSIC (small intestine contents concentration)",27400 ng/g
same,concentration at 4 h,"[1]; FVB, small intestine contents, male Abcg2-/- mice, read-out: CSIC (small intestine contents concentration)",91700 ng/g
same,concentration at 4 h,"[1]; FVB, small intestine contents, male wild-type mice, read-out: CSIC (small intestine contents concentration)",98100 ng/g
same,concentration at 4 h,"[1]; FVB, small intestine, male Abcb1a/1b-/- mice, read-out: CSI (small intestine tissue concentration)",17000 ng/g
same,concentration at 4 h,"[1]; FVB, small intestine, male Abcb1a/1b;Abcg2-/- mice, read-out: CSI (small intestine tissue concentration)",11600 ng/g
same,concentration at 4 h,"[1]; FVB, small intestine, male Abcg2-/- mice, read-out: CSI (small intestine tissue concentration)",13000 ng/g
same,concentration at 4 h,"[1]; FVB, small intestine, male wild-type mice, read-out: CSI (small intestine tissue concentration)",21600 ng/g
same,concentration at 4 h,"[1]; FVB, testis, male Abcb1a/1b-/- mice, read-out: Ctestis",3480 ± 634 ng/g
same,concentration at 4 h,"[1]; FVB, testis, male Abcb1a/1b;Abcg2-/- mice, read-out: Ctestis",8330 ± 935 ng/g
same,concentration at 4 h,"[1]; FVB, testis, male Abcg2-/- mice, read-out: Ctestis",1050 ± 192 ng/g
same,concentration at 4 h,"[1]; FVB, testis, male wild-type mice, read-out: Ctestis",811 ± 148 ng/g
same,abnormal external behavior (acute toxicity),[2]; Abcb1a/1b;Abcg2-/- mice,did not observe any abnormal external behavior
same,abnormal external behavior (acute toxicity),"[2]; Slco1a/1b-/- mice, 10 mg/kg",did not show any abnormal external behavior; also recorded: did not observe any abnormal external behavior
same,CSIC (small intestine contents concentration),[2]; [7],"34,929 ± 16,659 ng/g"
same,Cliver,[2]; [7],"19,077 ± 2696 ng/g"
same,concentration at 4 h,"[2]; male, FVB (Abcb1a/1b;Abcg2-/-), mouse, in vivo, po, 10 mg/kg, CSIC (small intestine contents concentration)",34900 ng/g
same,concentration at 4 h,"[2]; male, FVB (Abcb1a/1b;Abcg2-/-), mouse, in vivo, po, 10 mg/kg, Cbrain",3450 ng/g
same,concentration at 4 h,"[2]; male, FVB (Abcb1a/1b;Abcg2-/-), mouse, in vivo, po, 10 mg/kg, Cliver",19100 ng/g
same,concentration at 4 h,"[2]; male, FVB (Abcb1a/1b;Abcg2-/-), mouse, in vivo, po, 10 mg/kg, Ctestis",5730 ng/g
same,Cbrain,[2]; [8],278 ± 42 ng/g
same,Cliver,[2]; [8],"19,916 ± 3174 ng/g"
same,concentration at 4 h,"[2]; male, FVB (Slco1a/1b-/-), mouse, in vivo, po, 10 mg/kg, Cbrain",278 ± 42 ng/g
same,concentration at 4 h,"[2]; male, FVB (Slco1a/1b-/-), mouse, in vivo, po, 10 mg/kg, Cliver",19900 ng/g
same,concentration at 4 h,"[2]; male, FVB (Slco1a/1b-/-), mouse, in vivo, po, 10 mg/kg, Ctestis",1120 ng/g
same,Cliver,"[2]; male, FVB (wild-type), mouse, in vivo, po, 10 mg/kg, 4 h","17,593 ± 3471 ng/g"
same,concentration at 4 h,"[2]; male, FVB (wild-type), mouse, in vivo, po, 10 mg/kg, Cliver",17600 ng/g
same,AUC(0-t),[2]; [9],30200 ng·h/mL
same,Cmax,[2]; [9],8580 ± 2160 ng/mL
same,Tmax,[2]; [9],1.6 ± 1.2 h
same,AUC(0-t),[2]; [10],36200 ng·h/mL
same,Cmax,[2]; [10],11600 ng/mL
same,Tmax,[2]; [10],1.7 ± 0.52 h
same,concentration at 4 h,"[2]; male, FVB background, Slco1a/1b-/-, mouse, in vivo, po, 10 mg/kg, CSIC (small intestine contents concentration)",141000 ng/g
same,AUC(0-t),[2]; [11],26600 ng·h/mL
same,Cmax,[2]; [11],7860 ± 1810 ng/mL
same,Tmax,[2]; [11],1.8 ± 1.2 h
same,concentration at 4 h,"[2]; male, FVB background, wild-type, mouse, in vivo, po, 10 mg/kg, CSIC (small intestine contents concentration)",91100 ng/g
same,concentration at 4 h,"[2]; male, FVB background, wild-type, mouse, in vivo, po, 10 mg/kg, Cbrain",186 ± 23 ng/g
same,concentration at 4 h,"[2]; male, FVB background, wild-type, mouse, in vivo, po, 10 mg/kg, Ctestis",730 ± 103 ng/g

# Source: paper PMC8617681 (Pharmaceuticals, 2021)
